Here are results for 28 compounds from patent US20230416225A1, “DIAMINOPYRIMIDINE CARBOXAMIDE INHIBITORS OF HPK1” (MERCK SHARP & DOHME LLC, priority 2020, published 2023).

For the experiment, the target named is T1, Human HPK1, catalytic domain (Homo sapiens, UniProt Q92918).
T1 construct: purchased Carna
T1 sequence (Q92918 1-346): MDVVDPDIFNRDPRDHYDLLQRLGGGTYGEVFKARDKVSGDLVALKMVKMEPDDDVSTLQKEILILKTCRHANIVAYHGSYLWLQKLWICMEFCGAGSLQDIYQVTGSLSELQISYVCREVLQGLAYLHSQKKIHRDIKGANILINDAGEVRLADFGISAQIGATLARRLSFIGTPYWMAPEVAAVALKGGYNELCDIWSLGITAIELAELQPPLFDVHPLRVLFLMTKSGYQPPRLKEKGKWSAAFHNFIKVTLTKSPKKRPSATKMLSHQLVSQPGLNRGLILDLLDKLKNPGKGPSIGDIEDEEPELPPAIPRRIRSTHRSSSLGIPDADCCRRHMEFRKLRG
The experiment is described as follows: HPK1-SLP76 TR-FRET assay. Format: biochemical. Conditions: 75 pM HPK1, 10 uM ATP, 10 nM SLP76, 30 min compound pre-incubation.

The compound `Cn1cc(Nc2ncc(C(N)=O)c(N[C@H](CO)C3CCCCC3)n2)cn1` [Example 26-49, 4-{[(1S)-1-cyclohexyl-2-hydroxyethyl]amino}-2-[(1-methyl-1H-pyrazol-4-yl)amino]pyrimidine-5-carboxamide] gave an IC50 of 78.8 nM.
Then `NC(=O)c1cnc(Nc2ccc(F)c(C(F)(F)F)c2)nc1Nc1cccc2c1CCNC2=O` [Example 25-37, 2-{[4-fluoro-3-(trifluoromethyl)phenyl]amino}-4-[(1-oxo-1,2,3,4-tetrahydroisoquinolin-5-yl)amino]pyrimidine-5-carboxamide], with 69 nM; and `COc1cc2c(cc1Nc1ncc(C(N)=O)c(Nc3ccccc3Br)n1)CN(C1CCOCC1)CC2` [Example 9-7, 4-[(2-bromophenyl)amino]-2-{[6-methoxy-2-(oxan-4-yl)-1,2,3,4-tetrahydroisoquinolin-7-yl]amino}pyrimidine-5-carboxamide], with 0.84 nM.
In the case of `COc1cc2c(cc1Nc1ncc(C(N)=O)c(Nc3c(C)cc(C#N)cc3F)n1)CN(C)CC2` [Example 4-33, 4-[(4-cyano-2-fluoro-6-methylphenyl)amino]-2-[(6-methoxy-2-methyl-1,2,3,4-tetrahydroisoquinolin-7-yl)amino]pyrimidine-5-carboxamide], the IC50 turned out to be 0.44 nM.
Then `COc1cc2c(cc1Nc1ncc(C(N)=O)c(Nc3ccccc3Br)n1)CN(S(=O)(=O)C1CC1)CC2` [Example 10-8, 4-[(2-bromophenyl)amino]-2-{[2-(cyclopropylsulfonyl)-6-methoxy-1,2,3,4-tetrahydroisoquinolin-7-yl]amino}pyrimidine-5-carboxamide], with 845 nM; and `COc1cc2c(cc1Nc1ncc(C(N)=O)c(Nc3ccc(C)cc3)n1)CN(C)CC2` [Example 7-24, 2-[(6-methoxy-2-methyl-1,2,3,4-tetrahydroisoquinolin-7-yl)amino]-4-[(4-methylphenyl)amino]pyrimidine-5-carboxamide], with 0.4 nM.
With `CNC(=O)c1cccc(Nc2nc(Nc3cc4c(cc3OC)CCN(C)C4)ncc2C(N)=O)c1` [Example 7-38, 2-[(6-methoxy-2-methyl-1,2,3-tetrahydroisoquinolin-7-yl)amino]-4-{[3-(methylcarbamoyl)phenyl]amino} pyrimidine-5-carboxamide], it took 7.77 nM to reach half-maximal inhibition (IC50).
Then `COc1cc2c(cc1Nc1ncc(C(N)=O)c(Nc3c(F)cc(F)cc3Cl)n1)CN(C)CC2` [Example 4-21, 4-[(2-chloro-4,6-difluorophenyl)amino]-2-[(6-methoxy-2-methyl-1,2,3,4-tetrahydroisoquinolin-7-yl)amino]pyrimidine-5-carboxamide], with 0.45 nM.
As for `NC(=O)c1cnc(Nc2cccc(F)c2)nc1Nc1cccc2c1CCNC2=O` [Example 25-10, 2-[(3-fluorophenyl)amino]-4-[(1-oxo-1,2,3,4-tetrahydroisoquinolin-5-yl)amino]pyrimidine-5-carboxamide], the concentration for half-maximal inhibition (IC50) came out at 1.22 nM.
With `CC[C@H](C)Cc1ccccc1Nc1nc(Nc2cc3c(cc2OC)CCN(C)C3)ncc1C(N)=O` [Example 13-6, 2-[(6-methoxy-2-methyl-1,2,3,4-tetrahydroisoquinolin-7-yl)amino]-4-({2-[(2S)-2-methylbutyl]phenyl}amino)pyrimidine-5-carboxamide] the figure was 597 nM.
With `NC(=O)c1cnc(Nc2cccc(C3CC3)c2)nc1Nc1cccc2c1CCNC2=O` [Example 25-25, 2-[(3-cyclopropylphenyl)amino]-4-[(1-oxo-1,2,3,4-tetrahydroisoquinolin-5-yl)amino]pyrimidine-5-carboxamide] the figure was 1.23 nM; with `COc1cc2c(cc1Nc1ncc(C(N)=O)c(NC3CCc4c(F)ccc(F)c43)n1)CN(C)CC2` (stereo not shown) [Example 26-70, 4-[(4,7-difluoro-2,3-dihydro-1H-inden-1-yl)amino]-2-[(6-methoxy-2-methyl-1,2,3,4-tetrahydroisoquinolin-7-yl)amino]pyrimidine-5-carboxamide], 2.71 nM; with `COc1cc2c(cc1Nc1ncc(C(N)=O)c(N[C@@H]3CCCC[C@H]3C(F)F)n1)CN(C)CC2` [Example 26-33, 4-{[(1R,2R)-2-(difluoromethyl)cyclohexyl]amino}-2-[(6-methoxy-2-methyl-1,2,3,4-tetrahydroisoquinolin-7-yl)amino]pyrimidine-5-carboxamide], 0.46 nM.
With `COc1cc2c(cc1Nc1ncc(C(N)=O)c(Nc3c(F)cccc3C(F)(F)F)n1)CN(C)CC21CC1` [Example 21-1, 4-((2-fluoro-6-(trifluoromethyl)phenyl)amino)-2-((6′-methoxy-2′-methyl-2′,3′-dihydro-1′H-spiro[cyclopropane-1,4′-isoquinolin]-7′-yl)amino)pyrimidine-5-carboxamide] the figure was 0.21 nM.
`COc1cc2c(cc1Nc1ncc(C(N)=O)c(NC3CCc4ccc(C)cc43)n1)CN(C)CC2` (stereo not shown) [Example 26-71, 2-[(6-methoxy-2-methyl-1,2,3,4-tetrahydroisoquinolin-7-yl)amino]-4-[(6-methyl-2,3-dihydro-1H-inden-1-yl)amino]pyrimidine-5-carboxamide] displayed an IC50 of 32.8 nM.
`COc1cc2c(cc1Nc1ncc(C(N)=O)c(Nc3ccc(Br)cc3)n1)CN(C)CC2` [Example 7-72, 4-[(4-bromophenyl)amino]-2-[(6-methoxy-2-methyl-1,2,3,4-tetrahydroisoquinolin-7-yl)amino]pyrimidine-5-carboxamide] returned a half-inhibitory concentration (IC50) of 1.52 nM.
Then `COc1cc2c(cc1Nc1ncc(C(N)=O)c(Nc3cccc4c3CCN(S(C)(=O)=O)C4)n1)CN(C)CC2` [Example 7-31, 2-[(6-methoxy-2-methyl-1,2,3,4-tetrahydroisoquinolin-7-yl)amino]-4-{[2-(methylsulfonyl)-1,2,3,4-tetrahydroisoquinolin-5-yl]amino}pyrimidine-5-carboxamide], with 0.15 nM; and `COc1cc2c(cc1Nc1ncc(C(N)=O)c(Nc3ccccc3C3CCCCC3)n1)CN(C)CC2` [Example 13-1, 4-[(2-cyclohexylphenyl)amino]-2-[(6-methoxy-2-methyl-1,2,3,4-tetrahydroisoquinolin-7-yl)amino]pyrimidine-5-carboxamide], with 5.83 nM; and `CS(=O)(=O)c1ccc(Nc2ncc(C(N)=O)c(Nc3cccc4c3CCNC4=O)n2)cc1` [Example 7-48, 2-{[4-(methylsulfonyl)phenyl]amino}-4-[(1-oxo-1,2,3,4-tetrahydroisoquinolin-5-yl)amino]pyrimidine-5-carboxamide], with 1.29 nM.
Then `COc1ccc2c(c1)C(Nc1nc(Nc3cc4c(cc3OC)CCN(C)C4)ncc1C(N)=O)CC2` (stereo not shown) [Example 26-69, 4-[(6-methoxy-2,3-dihydro-1H-inden-1-yl)amino]-2-[(6-methoxy-2-methyl-1,2,3,4-tetrahydroisoquinolin-7-yl)amino]pyrimidine-5-carboxamide], with 42.5 nM; and `COc1cc2c(cc1Nc1ncc(C(N)=O)c(Nc3ccccc3CC3(C#N)CCC3)n1)CN(C)CC2` [Example 13-11, 4-({2-[(1-cyanocyclobutyl)methyl]phenyl}amino)-2-[(6-methoxy-2-methyl-1,2,3,4-tetrahydroisoquinolin-7-yl)amino]pyrimidine-5-carboxamide], with 0.4 nM; and `COc1cc2c(cc1Nc1ncc(C(N)=O)c(Nc3c(F)cc(Br)cc3F)n1)CN(C)CC2` [Example 4-30, 4-[(4-bromo-2,6-difluorophenyl)amino]-2-[(6-methoxy-2-methyl-1,2,3,4-tetrahydroisoquinolin-7-yl)amino]pyrimidine-5-carboxamide], with 0.42 nM.
With `COc1cc2c(cc1Nc1ncc(C(N)=O)c(Nc3ccccc3Br)n1)CN(C(C)=O)CC2` [Example 12-2, 2-[(2-acetyl-6-methoxy-1,2,3,4-tetrahydroisoquinolin-7-yl)amino]-4-[(2-bromophenyl)amino]pyrimidine-5-carboxamide] the figure was 244 nM; with `COc1cc2c(cc1Nc1ncc(C(N)=O)c(Nc3cccc(C(C)N)c3)n1)CN(C)CC2` (stereo not shown) [Example 2-5, 4-{[3-(1-aminoethyl)phenyl]-amino}-2-[(6-methoxy-2-methyl-1,2,3,4-tetrahydroisoquinolin-7-yl)amino]pyrimidine-5-carboxamide], 0.25 nM.
`COc1cc2c(cc1Nc1ncc(C(N)=O)c(Nc3ccccc3CN)n1)CN(C)CC2` [Example 2-3, 4-{[2-(aminomethyl)phenyl]-amino}-2-[(6-methoxy-2-methy1-1,2,3,4-tetrahydroisoquinolin-7-yl)amino]pyrimidine-5-carboxamide] gave an IC50 of 1.64 nM.
Then `COc1cc2c(cc1Nc1ncc(C(N)=O)c(N[C@@H]3CCCC[C@@H]3C)n1)CN(C)CC2` [Example 26-41, 2-[(6-methoxy-2-methyl-1,2,3,4-tetrahydroisoquinolin-7-yl)amino]-4-{[(1R,2S)-2-methylcyclohexyl]amino}pyrimidine-5-carboxamide], with 0.14 nM; and `COc1cc2c(cc1Nc1ncc(C(N)=O)c(Nc3cccc4c3CCN(C)C4=O)n1)CN(C)CC2` [Example 7-35, 2-[(6-methoxy-2-methyl-1,2,3,4-tetrahydroisoquinolin-7-yl)amino]-4-[(2-methyl-1-oxo-1,2,3,4-tetrahydroisoquinolin-5-yl)amino]pyrimidine-5-carboxamide], with 1.49 nM.
Then `NC(=O)c1cnc(Nc2cnn(CC3CC3)c2)nc1Nc1cccc2c1CCNC2` [Example 7-8, 2-{[1-(cyclopropylmethyl)-1H-pyrazol-4-yl]amino}-4-[(1,2,3,4-tetrahydroisoquinolin-5-yl)amino]pyrimidine-5-carboxamide], with 1.48 nM.

In general, IC50 refers to the point on the concentration scale where inhibition reaches its midpoint. A high value points to weaker potency in that assay.
